Assay results from patent US20140018384A1, “QUINOLINONE DERIVATIVES FOR USE IN THE TREATMENT OF AN AUTOIMMUNE DISEASE AND/OR AN INFLAMMATORY DISEASE” (PRONOXIS AB, priority 2011, published 2014).
Read-outs that look alike come from different tables or passages of the source.

Legend:
PLB-985 cells = experiment: ROS production (isoluminol/HRP luminescence) in PLB-985 cells, Biological Example 1; type: cell-based; conditions: 25 μM compound vs. DMSO
How it was run: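 Cells in HBSS received compound plus isoluminol and HRP; luminescence followed 10–30 min, AUC divided by control to give fold change in NADPH oxidase activity. HL-60: 50 μM compound vs blank; PLB-985: 25 μM compound vs blank or vs DMSO.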

Rat granulocytes = experiment: ROS production in thioglycollate-recruited rat granulocytes, isoluminol chemiluminescence assay; type: cell-based; conditions: 25 μM compound, compared to DMSO control cells; FIGS. 2A and B
Experimental: (§1) FIG. 2: ROS production and effect on T cell arthritogeniciy of ROS inducing substances. A-B). Thioglycolate recruited rat granulocytes (in accordance with the procedure in Biological Example 3) were treated with 25 μM substance and measurement of ROS production was initiated immediately using an isoluminol based chemiluminescence assay (FIGS. 2A and 2B). […] C-D) Arthritogenic rat splenocytes were treated with 12.5 μM substance during 44 hours ex vivo incubation in presence of ConA (FIGS. 2C and 2D). Following incubation, cells were washed and injected i.p. into naive recipient rats (n=8-11). Disease severity in recipient rats was followed by investigation of macroscopic swelling and redness of the rat joints. Treatment with substance during ex vivo stimulation prevented transfer of arthritogenic T cells.
Rat granulocytes were recruited to the peritoneum by an i.p. injection of 2.4% thioglycollate medium (autoclaved). The peritoneal cavity was washed after 24 hours with ice cold HBSS. Collected cells were, after lysis of red blood cells, washed and resupended in HBSS. In a total volume of 100 μl, compound (25 μM), isoluminol (0.175 mg/ml) and horseradish peroxidase (fraction II) (1.75 U/ml) was added to the cells (0.1*10̂6/well) and resulting ROS production detected as a luminescence signal (fluorescent unit, FU) over time. […] All samples were analysed at least in duplicates.

arthritogenic T cells = experiment: Adoptive transfer of ex vivo treated arthritogenic T cells (splenocytes) to naive recipient DA rats; type: in vivo, rat; conditions: for T cells capacity to transfer arthritis to naive recipients: 12.5 μM substance, 44 hours ex vivo with ConA, cells injected i.p. into DA rats, FIGS. 2C and D
Experimental: Arthritogenic cells were treated with H2O2 (176-1.76 μM) for 20 min and A) granulocytes and B) T cells (see FIGS. 1A and 1B) were investigated for intracellular ROS using a DHR-123 based flow cytometric assay. […] Arthritogenic cells were cultured in presence of Con A and w/wo H2O2 (176-1.76 μM) for 44 hours and then transferred to naïve recipient rats (n=7-9).
as §1
In order to investigate the effect of ROS on T cell arthritogenicity, spleens were collected from arthritis susceptible DA rats injected with the arthritis inducing oil pristane (0.5 ml per rat s.c.) day −13. Single cell suspensions were prepared from the spleens and red blood cells were lysed. After wash, cells were resuspended in cell culture medium containing concanavalin A (ConA) to a final concentration of 4.5×10̂6 cells/ml. […] The cells were incubated for 44 hours at 37° C. After incubation the cells were washed and resuspended in PBS to a final concentration of 60*10̂6 cells/ml. Cells were injected i.p. (1 ml/rat) into naïve recipient DA rats and disease was followed by macroscopic evaluation of disease.
In order to investigate the effect of ROS inducing substances on T cell arthritogenicity, spleens were collected from arthritis susceptible DA rats injected with the arthritis inducing oil pristane (0.5 ml per rat s.c.) day −13. Single cell suspensions were prepared from the spleens and red blood cells were lysed.
After wash, cells were resuspended in cell culture medium containing concanavalin A (ConA) to a final concentration of 4.5×10̂6 cells/ml. Substance A or B was added to the cells to a final concentration of 12.5 μM. The cells were incubated for 44 hours at 37° C. Control cells were incubated in presence of vehicle control (DMSO). After incubation the cells were washed and resuspended in PBS to a final concentration of C) 30*10̂6 and D) 60*10̂6 cells/ml. Cells were injected i.p. (1 ml/rat) into naïve recipient DA rats and disease was followed by macroscopic evaluation of disease (n=8-11).

HL-60 cells = experiment: ROS production (isoluminol/HRP luminescence) in HL-60 cells, Biological Example 1; type: cell-based; conditions: Homo sapiens, 50 μM compound vs. blank, read-out: Activity A (fold increase of NADPH activity compared to control)
Experimental: To cells (HL-60 or PLB-985) in HBSS medium was added compound (25 or 50 μM), isoluminol and Horse Radish Peroxidase, fraction II. Luminescence was measured for 10-30 minutes and the area under the […] curve was divided by that from a control experiment to give the activity expressed as fold change.
Each assay indicated below was performed at a different site, at a different time, by different personnel and/or using different cell lines, concentrations and controls. The cell line, concentration of example compound and control used in respect of each assay were as indicated below. The values obtained from these different setups (each using an otherwise identical assay) are given as Activity A, B, C, D or E in Table 5 below. The values are expressed as fold increase of NADPH activity in the presence of the relevant of compound (as indicated below) compared to the relevant control (as indicated below).
Activity A: HL-60 cells; 50 μM compound vs. blank Activity B: PLB-985 cells; 25 μM compound vs. blank Activity C, D and E: PLB-985 cells; 25 μM compound vs. DMSO

granulocytes and T cells = conditions: H2O2 176-1.76 μM for 20 min
Experimental: In order to measure the effect of exogenous ROS on intracellular ROS content, single cell suspensions were prepared from rat spleens. After lysis of red blood cells (0.84% ammonium chloride) the cells were stained with antibody His-48-bio (anti-granulocyte) or R73-bio (anti-T cell receptor) followed by staining with streptavidine-APC. Cells were then resuspended in DMEM containing DHR-123 and incubated for 10 minutes at 37° C. […] After 20 minutes incubation, cells were washed, resuspended in PBS and acquired in a FACScalibur. […] Samples were analysed in triplicates.

[1] = setup C, read-out: Activity C (fold increase of NADPH activity compared to control)

`O=C(Cn1cc(C(=O)c2ccc3ccccc3c2)c(=O)c2cc3c(cc21)OCO3)Nc1ccc(Cl)cc1` [Example 1, N-(4-Chlorophenyl)-2-[6,7-methylenedioxy-3-(2-naphthoyl)-4-oxo-1-quinolinyl]-acetamide] was tested, and the fold induction at 25 µM (PLB-985 cells; [1]) was 45.3, the fold induction at 25 µM (PLB-985 cells; setup D, read-out: Activity D (fold increase of NADPH activity compared to control)) was 27.4 and the fold induction at 25 µM (PLB-985 cells; setup E, read-out: Activity E (fold increase of NADPH activity compared to control)) was 8.5. The “cellular ROS production (luminescence signal over time)” value (Rat granulocytes) was “clear induction of cellular ROS production” and the “T cells capacity to transfer arthritis to naive recipients” value (arthritogenic T cells) was “significantly alters the T cells capacity to transfer arthritis to naïve recipients”.
For `CCOc1ccc2c(c1)c(=O)c(C(=O)c1ccc(C)cc1)cn2CC(=O)Nc1ccccc1C` [Example 91, 2-(6-Ethoxy-4-oxo-3-p-toluoyl-1-quinolinyl)-N-o-tolylacetamide], the fold induction at 50 µM (HL-60 cells) was 5.3.
`O=C(Cn1cc(C(=O)c2ccc(Cl)cc2)c(=O)c2cc3c(cc21)OCO3)Nc1ccc(F)cc1` [Example 92, 2-[3-(4-Chlorobenzoyl)-6,7-methylenedioxy-4-oxo-1-quinolinyl]-N-(4-fluorophenyl)acetamide] was tested, and the fold induction at 50 µM (HL-60 cells) was 8.2.
`CCc1ccc(C(=O)c2cn(CC(=O)Nc3ccc(F)cc3)c3cc4c(cc3c2=O)OCO4)cc1` [Example 100, 2-[3-(4-Ethylbenzoyl)-6,7-methylenedioxy-4-oxo-1-quinolinyl]-N-(4-fluorophenyl)acetamide] showed a fold induction at 50 µM (HL-60 cells) of 2.9.
`CCOc1ccc(C(=O)c2cn(CC(=O)Nc3ccc(OC)cc3)c3cc4c(cc3c2=O)OCO4)cc1` [Example 94, N-p-Anisyl-2-[3-(4-ethoxybenzoyl)-6,7-methylenedioxy-4-oxo-1-quinolinyl]acetamide] showed a fold induction at 50 µM (HL-60 cells) of 8.4.
In the case of `OO` [Example H2O2, Hydrogen peroxide, reference compound], the “mean arthritis severity in recipient rats” value (arthritogenic T cells; cells cultured 44 hours with Con A at lower concentrations of H2O2 (below 88 μM)) is reported as “the effect is lost”, the “mean arthritis severity in recipient rats” value (arthritogenic T cells; cells cultured 44 hours with Con A in presence of 176 μM and 88 μM H2O2) is reported as “significant reduction” and the “intracellular ROS” value (granulocytes and T cells) is reported as “Intracellular ROS reflected amount of H2O2 added”.
For `COc1ccc(NC(=O)Cn2cc(C(=O)c3ccccc3)c(=O)c3cc4c(cc32)OCO4)c(OC)c1` [Example 84, 2-(3-Benzoyl-6,7-methylenedioxy-4-oxo-1-quinolinyl)-N-(2,4-dimethoxyphenyl)acetamide], the fold induction at 25 µM (PLB-985 cells; [1]) was 8.4, the “cellular ROS production (luminescence signal over time)” value (Rat granulocytes) was “clear induction of cellular ROS production” and the “T cells capacity to transfer arthritis to naive recipients” value (arthritogenic T cells) was “significantly alters the T cells capacity to transfer arthritis to naïve recipients”.
For `O=C(Cn1cc(S(=O)(=O)c2ccc(F)cc2)c(=O)c2cc3c(cc21)OCO3)Nc1ccccc1` [Example 96, 2-[3-(4-Fluorobenzenesulfonyl)-6,7-methylenedioxy-4-oxo-1-quinolinyl]-N-phenylacetamide], the fold induction at 50 µM (HL-60 cells) was 2.3.
